The text below walks through data of US5373000A, “7Beta-(thiadiazolyl)-2-iminoacetamido-3cephem compounds” (Eisai Co., Ltd., priority 1985, dated 1994).

For orientation: MIC means the lowest concentration found to suppress growth.

Some test systems named below: Escher. coli NIHJ; Staph. aureus 209-P; Morg. morganii EP-14; Ser. marcescens ES-75; Pseud. aeruginosa EP-01; Kleb Pneumoniae EK-6.
Experiment in all cases: Antibacterial activities, MIC
Holding throughout (type): cell-based

The mark [1] stands for this setting: Escherichia coli, read-out: MIC.
Where [2] appears, read: Staphylococcus aureus, read-out: MIC.
The mark [3] stands for this setting: Morganella morganii, EP14, Morg. morganii EP-14, read-out: MIC.
[4] abbreviates: Serratia marcescens, ES75, read-out: MIC.
The mark [5] stands for this setting: Pseudomonas aeruginosa, EP01, Pseud. aeruginosa EP-01, read-out: MIC.

In brackets after ≈: the same amount, converted by molar mass. Counter-ions that a name gives are not always drawn. Like-named read-outs stand apart in the source and are kept apart here.

For `CO/N=C(\C(=O)N[C@@H]1C(=O)N2C(C(=O)[O-])=C(/C=C/C[N+]3(C)CCCN3C)CS[C@H]12)c1nsc(N)n1` (single isomer, unassigned) [Example 30-A, 7β-[2-(5-Amino-1,2,4-thiadiazol-3-yl)-(Z)-2-methoxyiminoacetamido]-3-[(E)-(1,2-dimethyl-1-pirazolydinio)-1-propen-1-yl]-3-cephem-4-carboxylate], the minimum inhibitory concentration (MIC) in the assay on Escher. coli NIHJ (setting [1]) is at most 0.025 µg/mL; with Staph. aureus 209-P (setting [2]), 0.1 µg/mL (≈ 0.191 µM); in the assay with Morg. morganii EP-14 (setting [3]), at most 0.025 µg/mL; with Ser. marcescens ES-75 (setting [4]), 0.05 µg/mL (≈ 0.0957 µM); with Pseud. aeruginosa EP-01 (setting [5]) it was 0.4 µg/mL (≈ 0.765 µM); in the assay with Kleb Pneumoniae EK-6 (read-out: MIC), at most 0.025 µg/mL.

Regarding `CO/N=C(\C(=O)N[C@@H]1C(=O)N2C(C(=O)[O-])=C(/C=C/C[N+]3(C)CCCN3C)CS[C@H]12)c1nsc(N)n1` (single isomer, unassigned) [Example 30-B, 7β-[2-(5-Amino-1,2,4-thiadiazol-3-yl)-(Z)-2-methoxyiminoacetamido]-3-[(E)-(1,2-dimethyl-1-pirazolydinio)-1-propen-1-yl]-3-cephem-4-carboxylate], the MIC against Escher. coli NIHJ was at most 0.025 µg/mL; against Staph. aureus 209-P, 0.1 µg/mL (≈ 0.191 µM); in the assay on Morg. morganii EP-14 (Morg. morganii EP-14), 0.05 µg/mL (≈ 0.0957 µM); in the assay with Ser. marcescens ES-75, 0.05 µg/mL (≈ 0.0957 µM); against Pseud. aeruginosa EP-01 (Pseud. aeruginosa EP-01), 0.8 µg/mL (≈ 1.53 µM); in the assay on Kleb Pneumoniae EK-6 it was at most 0.025 µg/mL.

Consider `CO/N=C(\C(=O)N[C@@H]1C(=O)N2C(C(=O)[O-])=C(/C=C/C[N+]3(C)CC=CC3)CS[C@H]12)c1nsc(N)n1` [Example 2, 7β-[2-(5-Amino-1,2,4-thiadiazol-3-yl)-(Z)-2-methoxyiminoacetamido]-3-[(E)-3-(1-methyl-3-pyrrolinio)-1-propene-1-yl)-3-cephem-4-carboxylate], for which the minimum inhibitory concentration (MIC) with Escher. coli NIHJ (setting [1]) is 0.05 µg/mL (≈ 0.0989 µM); in the assay with Staph. aureus 209-P (setting [2]), 0.2 µg/mL (≈ 0.396 µM); in the assay on Morg. morganii EP-14 (setting [3]) it was 0.05 µg/mL (≈ 0.0989 µM); with Ser. marcescens ES-75 (setting [4]), 0.1 µg/mL (≈ 0.198 µM); with Pseud. aeruginosa EP-01 (setting [5]), 1.56 µg/mL (≈ 3.09 µM); in the assay on Kleb Pneumoniae EK-6 (read-out: MIC) it was at most 0.025 µg/mL.

Regarding `CO/N=C(\C(=O)N[C@@H]1C(=O)N2C(C(=O)[O-])=C(/C=C/C[N+]3(C)CCC[C@H]3CO)CS[C@H]12)c1nsc(N)n1` (stereo partly drawn) [Example 3, 7β-[2-(5-Amino-1,2,4-thiadiazol-3-yl)-(Z)-2-methoxyiminoacetamido]-3-[(E)-3-((2S)-2-hydroxymethyl-1-methylpyrrolidinio)-1-propen-1-yl]-3-cephem-4-carboxylate], the minimum inhibitory concentration (MIC) in the assay on Escher. coli NIHJ (setting [1]) was 0.05 µg/mL (≈ 0.093 µM); with Staph. aureus 209-P (setting [2]), 0.2 µg/mL (≈ 0.372 µM); in the assay with Morg. morganii EP-14 (setting [3]), 0.05 µg/mL (≈ 0.093 µM); in the assay on Ser. marcescens ES-75 (setting [4]), 0.1 µg/mL (≈ 0.186 µM); with Pseud. aeruginosa EP-01 (setting [5]) it was 1.56 µg/mL (≈ 2.9 µM); in the assay with Kleb Pneumoniae EK-6 (read-out: MIC), at most 0.025 µg/mL.

For the compound `CO/N=C(\C(=O)N[C@@H]1C(=O)N2C(C(=O)[O-])=C(/C=C/C[N+]34CCC(C(N)=O)(CC3)CC4)CS[C@H]12)c1nsc(N)n1` [Example 4, 7β-[2-(5-Amino-1,2,4-thiadiazol-3-yl)-(Z)-2-methoxyiminoacetamido]-3-[(E)-3-(4-carbamoylquinuclidinio)-1-propen-1-yl]-3-cephem-4-carboxylate], the MIC in the assay on Escher. coli NIHJ (setting [1]) is 0.05 µg/mL (≈ 0.0867 µM); in the assay on Staph. aureus 209-P (setting [2]), 0.4 µg/mL (≈ 0.694 µM); with Morg. morganii EP-14 (setting [3]) it was 0.05 µg/mL (≈ 0.0867 µM); in the assay with Ser. marcescens ES-75 (setting [4]), 0.1 µg/mL (≈ 0.173 µM); in the assay on Pseud. aeruginosa EP-01 (setting [5]) it was 1.56 µg/mL (≈ 2.71 µM); in the assay on Kleb Pneumoniae EK-6 (read-out: MIC), at most 0.025 µg/mL.

Turning to `CO/N=C(\C(=O)N[C@@H]1C(=O)N2C(C(=O)[O-])=C(/C=C/C[N+]3(C)CCNCC3)CS[C@H]12)c1nsc(N)n1` [Example 5, 7β-[(2-(5-Amino-1,2,4-thiadiazol-3-yl)-(Z)-2-methoxyiminoacetamido]-3-[(E)-3-(1-methyl-1-piperadinio)-1-propen-1-yl]-3-cephem-4-carboxylate trifluoroacetate], the MIC is 0.05 µg/mL with Escher. coli NIHJ (setting [1]); 0.2 µg/mL in the assay on Staph. aureus 209-P (setting [2]); 0.1 µg/mL in the assay on Morg. morganii EP-14 (setting [3]); 0.1 µg/mL in the assay with Ser. marcescens ES-75 (setting [4]); 0.8 µg/mL in the assay with Pseud. aeruginosa EP-01 (setting [5]); at most 0.025 µg/mL in the assay on Kleb Pneumoniae EK-6 (read-out: MIC).

As for `CC[N+](CC)(C/C=C/C1=C(C(=O)[O-])N2C(=O)[C@@H](NC(=O)/C(=N\OC)c3nsc(N)n3)[C@H]2SC1)CC(N)=O` [Example 11, 7β-[2-(5-Amino-1,2,4-thiadiazol-3-yl)-(Z)-2-methoxyiminoacetamido]-3-[(E)-3-(carbamoylmethyldiethylammonio)-1-propen-1-yl]-3-cephem-4-carboxylate], the minimum inhibitory concentration (MIC) with Escher. coli NIHJ (setting [1]) was 0.05 µg/mL (≈ 0.0905 µM); in the assay with Staph. aureus 209-P (setting [2]), 0.2 µg/mL (≈ 0.362 µM); with Morg. morganii EP-14 (setting [3]), 0.05 µg/mL (≈ 0.0905 µM); with Ser. marcescens ES-75 (setting [4]) it was 0.1 µg/mL (≈ 0.181 µM); with Pseud. aeruginosa EP-01 (setting [5]) it was 1.56 µg/mL (≈ 2.82 µM); with Kleb Pneumoniae EK-6 (read-out: MIC) it was at most 0.025 µg/mL.

With `CO/N=C(\C(=O)N[C@@H]1C(=O)N2C(C(=O)[O-])=C(/C=C/C[N+](C)(C)CCN(C)C)CS[C@H]12)c1nsc(N)n1` [Example 12, 7β-[2-(5-Amino-1,2,4-thiadiazol-3-yl)-(Z)-2-methoxyiminoacetamido]-3-[(E)-3-(2-dimethylaminoethyldimethylammonio)-1-propen-1-yl]-3-cephem-4-carboxylate], the MIC was found to be 0.05 µg/mL (≈ 0.0928 µM) in the assay on Escher. coli NIHJ (setting [1]); 0.4 µg/mL (≈ 0.743 µM) in the assay with Staph. aureus 209-P (setting [2]); 0.1 µg/mL (≈ 0.186 µM) in the assay with Morg. morganii EP-14 (setting [3]); 0.1 µg/mL (≈ 0.186 µM) in the assay with Ser. marcescens ES-75 (setting [4]); 1.56 µg/mL (≈ 2.9 µM) in the assay with Pseud. aeruginosa EP-01 (setting [5]); 0.05 µg/mL (≈ 0.0928 µM) in the assay with Kleb Pneumoniae EK-6 (read-out: MIC).
